Measurements: US11440932B2, “Surfactant compounds-clips for extraction and stabilization in solution of membrane proteins” (CENTRE NATIONAL DE LA RECHERCHE SCIENTIFIQUE, priority 2017, dated 2022)

Experiments:
[1] = Critical micelle concentration (CMC) by DPH fluorescence; assay type: physicochemical; conditions: for CMC: 50 mM tris-HCl, pH 8.0
BmrA = molecular target: T1, BmrA (Bacillus subtilis, UniProt O06967); experiment: Extraction of BmrA from membranes (SDS-PAGE of supernatant); design: species or system bacterial; overexpressed in E. coli C41DE3; conditions: detergent 10 g/l unless indicated otherwise; 2 h at 4° C.
T1 construct: His tag; made in house; host or cells: E. coli C41(DE3)
T1 sequence (O06967 whole entry): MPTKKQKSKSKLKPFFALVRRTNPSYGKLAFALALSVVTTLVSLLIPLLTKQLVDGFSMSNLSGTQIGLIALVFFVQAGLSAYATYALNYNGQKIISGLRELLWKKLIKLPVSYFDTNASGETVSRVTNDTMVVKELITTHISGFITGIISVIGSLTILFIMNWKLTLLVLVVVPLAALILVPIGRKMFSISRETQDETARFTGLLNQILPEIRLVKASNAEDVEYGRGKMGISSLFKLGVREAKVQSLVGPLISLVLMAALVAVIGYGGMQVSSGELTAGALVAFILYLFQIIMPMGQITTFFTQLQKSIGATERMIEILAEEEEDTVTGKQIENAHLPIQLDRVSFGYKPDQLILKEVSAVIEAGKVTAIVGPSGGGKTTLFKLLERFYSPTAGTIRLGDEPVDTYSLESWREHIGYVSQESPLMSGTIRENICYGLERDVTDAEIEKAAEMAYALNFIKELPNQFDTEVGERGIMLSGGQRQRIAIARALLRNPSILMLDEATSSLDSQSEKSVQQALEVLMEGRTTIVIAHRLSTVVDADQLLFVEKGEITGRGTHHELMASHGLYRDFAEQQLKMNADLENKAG
In short: (§1)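 E. coli C41(DE3) membranes overexpressing BmrA (~25% of protein) or AcrB (~20%), at 2 g/l protein in 20 mM Tris-HCl pH 8.0, 100 mM NaCl, 15% glycerol with protease inhibitors, treated with detergent at 10 g/l unless stated otherwise for 2 h at 4° C. After 100 000×g centrifugation, 20 μg supernatant protein run on 10% SDS-PAGE, Coomassie-stained.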

AcrB = molecular target: T2, AcrB (Escherichia coli, UniProt P31224); experiment: Extraction of AcrB from membranes (SDS-PAGE of supernatant); design: species or system bacterial; same expression system (E. coli C41DE3); conditions: detergent 10 g/l unless indicated otherwise; 2 h at 4° C.
T2 construct: made in house; host or cells: E. coli C41(DE3)
T2 sequence (P31224 whole entry): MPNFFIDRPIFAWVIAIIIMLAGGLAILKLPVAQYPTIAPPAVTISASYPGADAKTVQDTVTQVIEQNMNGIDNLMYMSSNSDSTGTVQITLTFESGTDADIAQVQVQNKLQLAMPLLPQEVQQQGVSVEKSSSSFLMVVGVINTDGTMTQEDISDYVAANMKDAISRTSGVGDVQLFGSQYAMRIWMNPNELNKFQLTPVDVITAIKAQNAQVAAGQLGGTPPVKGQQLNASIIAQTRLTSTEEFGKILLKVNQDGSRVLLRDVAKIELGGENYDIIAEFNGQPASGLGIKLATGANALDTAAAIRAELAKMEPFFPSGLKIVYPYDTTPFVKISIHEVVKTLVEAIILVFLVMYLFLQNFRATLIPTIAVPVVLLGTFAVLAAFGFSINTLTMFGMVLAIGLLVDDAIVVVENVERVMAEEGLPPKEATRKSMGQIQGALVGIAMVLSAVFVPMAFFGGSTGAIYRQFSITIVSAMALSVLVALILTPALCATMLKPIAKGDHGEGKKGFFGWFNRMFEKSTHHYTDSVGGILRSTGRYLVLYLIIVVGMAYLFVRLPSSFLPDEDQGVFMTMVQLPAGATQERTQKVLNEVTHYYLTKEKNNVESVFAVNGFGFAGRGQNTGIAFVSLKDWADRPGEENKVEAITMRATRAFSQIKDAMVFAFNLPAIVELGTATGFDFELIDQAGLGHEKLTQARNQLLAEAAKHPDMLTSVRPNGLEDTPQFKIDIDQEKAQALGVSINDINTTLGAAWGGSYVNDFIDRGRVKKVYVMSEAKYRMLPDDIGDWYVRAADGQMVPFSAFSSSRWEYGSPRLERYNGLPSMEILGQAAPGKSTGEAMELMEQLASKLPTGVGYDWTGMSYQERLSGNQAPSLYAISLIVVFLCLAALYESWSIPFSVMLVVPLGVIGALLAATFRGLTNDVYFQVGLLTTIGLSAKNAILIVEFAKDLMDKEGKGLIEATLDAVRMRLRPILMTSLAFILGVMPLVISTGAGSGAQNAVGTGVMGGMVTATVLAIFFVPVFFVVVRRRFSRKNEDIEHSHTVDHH
In short: as §1

[2] = Diameter of micelles by dynamic light scattering (DLS); assay type: physicochemical; conditions: for Ø, nm: estimated micelle diameter by DLS, 30 mM tris-HCl, pH 8.0
Protocol: FIG. 5 depicts the dynamic light scattering (DLS) of clips, in intensity (%, column A on the left) and in number (%, column B on the right), as a function of the […] (nm). The estimated diameters are indicated on each panel (column A). Columns A and B, from top to bottom: compound 3.7c (10 mM, 5×CMC), compound 3.7d (10 mM, 5×CMC), compound 3.7e (2 mM, […]), compound 3.7f (10 mM, 500×CMC), compound 3.7h (1 mM, 100×CMC), compound 3.7j (2 mM, 100×CMC), compound 3.9a (1 mM, 50×CMC).
Another physicochemical parameter of the micelles of detergents is their diameter, assuming that they are spherical. This dimension is obtained by the light scattering (DLS) technique.
Procedure. The molecules of the invention tested were prepared in a range of concentrations extending from 0.1 to 1000×CMC in 30 mM tris-HCl, pH 8.0 and neutralized at this pH. The solutions are filtered on 0.22 μm. The measurement is carried out on 100 μl, in triplicate on a Zetasizer Nano-S from Malvern Instruments.

| Structure (SMILES) | CMC [1] [mM] | extraction of BmrA (BmrA) | extraction of AcrB (AcrB) | Ø, nm [2] [nm] | CMC (breakage in the slope of DPH fluorescence, FIG. 4) ([1]; triplicates) [mM] | estimated diameter ([2]; DLS) [nm] |
| --- | --- | --- | --- | --- | --- | --- |
| CCCCCCCCCCCC(=O)N[C@@H](COCc1cn(CCO[C@@H]2OC(CO)[C@@H](O)C(O)C2O)nn1)C(=O)N[C@H](CCC(=O)O)C(=O)O (stereo partly shown) [Compound 3.7b] | 1.5 | non-extracting | do not extract | – | – | – |
| CCCCCCCCCCCCCC(=O)N[C@@H](COCc1cn(CCO[C@@H]2OC(CO)[C@@H](O)C(O)C2O)nn1)C(=O)N[C@H](CCC(=O)O)C(=O)O (stereo partly shown) [Compound 3.7c] | 1 | extracting | extracting | 3.8 | – | – |
| CCCCCCCCCCCCCC(=O)N[C@@H](COCc1cn(CCO[C@@H]2OC(CO)[C@@H](O[C@H]3OC(CO)[C@@H](O)C(O)C3O)C(O)C2O)nn1)C(=O)N[C@H](CCC(=O)O)C(=O)O (stereo partly shown) [Compound 3.7e] | 2 | non-extracting | extracting | 3.5 | 2 | – |
| CCCCCCCCCCCCCC(=O)N[C@@H](COCc1cn(CCOCCOCCOCCOCCOCCOC)nn1)C(=O)N[C@H](CCC(=O)O)C(=O)O [Compound 3.7g] | 1 | extracting | – | – | – | – |
| CCCCCCCCCCCCC(CCCCCCCCCCCC)C(=O)N[C@@H](COCc1cn(CCO[C@@H]2OC(CO)[C@@H](O)C(O)C2O)nn1)C(=O)N[C@H](CCC(=O)O)C(=O)O (stereo partly shown) [Compound 3.7j] | 0.02 | partially extracting | extracting | 60 | – | ~60 |
| CCCCCCCCCCCCCC(=O)N[C@@H](COCc1cn(CCO[C@@H]2OC(CO)[C@@H](O)C(O)C2O)nn1)C(=O)N[C@@H](CCC(=O)O)C(=O)NCC(=O)O (stereo partly shown) [Compound 3.7l] | 1 | extracting | extracting | – | – | – |
